The text below walks through data of publication PMC8365601, “Terphenyl-Based Small-Molecule Inhibitors of Programmed Cell Death-1/Programmed Death-Ligand 1 Protein–Protein Interaction” (Journal of Medicinal Chemistry, 2021).

Read-outs that look alike come from different tables or passages of the source.

The assay deals with PD-1/PD-L1 complex (Homo sapiens, UniProt Q9NZQ7). As to the kind of experiment: HTRF assay of PD-1/PD-L1 complex dissociation (CisBio).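 As to all read-outs here: human PD-L1 at 5 nM with human PD-1 at 50 nM, TR-FRET signal read after 2 h at room temperature, background removed via negative control and scaled to positive control.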 The conditions noted are these: for remaining activity at 5 µM / remaining activity at 50 µM / remaining activity at 0.005 µM: 2 h; for IC50: HTRF; for % of undissociated complex: at 50 μM, Table S1; for HTRF % of the undissociated complex: determined at 50 μM inhibitor (footnote a), Table 2; for % of the undissociated complex: 5 μM.
Sequence of PD-1/PD-L1 complex (Q9NZQ7 19-238 limits assumed, one chain of several): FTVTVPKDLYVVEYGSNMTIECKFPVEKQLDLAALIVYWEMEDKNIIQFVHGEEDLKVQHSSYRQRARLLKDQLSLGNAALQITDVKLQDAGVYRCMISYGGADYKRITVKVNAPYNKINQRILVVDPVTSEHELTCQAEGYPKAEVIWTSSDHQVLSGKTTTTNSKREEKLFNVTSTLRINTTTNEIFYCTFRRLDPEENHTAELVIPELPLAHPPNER

[1] abbreviates: read-out: % of the undissociated complex in HTRF.
Where [2] appears, read: read-out: % of undissociated complex at 5 μM.
The mark [3] stands for this setting: read-out: HTRF % of the undissociated complex at 5 μM.
Setting [4] is: read-out: % of undissociated complex at 5 nM.
Setting [5] is: read-out: HTRF % of the undissociated complex at 5 nM.

In the case of `Cc1c(-c2cccc(CO)c2)cccc1-c1ccc2c(c1)OCCO2` [4b, (3′-(Benzo-1,4-dioxan-6-yl)-2′-methyl-[1,1′-biphenyl]-3-yl)methanol], the remaining activity at 5 µM reads like this: under setting [1], 88%; under setting [2], 88%; under setting [3], 88%.

Consider `Cc1c(-c2ccc3c(c2)OCCO3)cccc1-c1ccccc1CO` [4c, (3′-(Benzo-1,4-dioxan-6-yl)-2′-methyl-[1,1′-biphenyl]-2-yl)methanol], for which the remaining activity at 5 µM turned out to be 98% under setting [1], 98% under setting [2] and 98% under setting [3].

As to `Nc1c(-c2ccc(CO)cc2)cccc1-c1ccc2c(c1)OCCO2` [4d, (2′-Amino-3′-(benzo-1,4-dioxan-6-yl)-[1,1′-biphenyl]-4-yl)methanol], the remaining activity at 5 µM by setting is: under setting [1], 73%; under setting [2], 73%; under setting [3], 73%.

Regarding `OCc1ccc(-c2cccc(-c3ccc4c(c3)OCCO4)c2Cl)cc1` [4e, (3′-(Benzo-1,4-dioxan-6-yl)-2′-chloro-[1,1′-biphenyl]-4-yl)methanol], the IC50 was approximately 0.5 µM. Under setting [1], the remaining activity at 5 µM worked out at 1%. In addition, under setting [2], the remaining activity at 5 µM was determined as 1%. Besides, the remaining activity at 5 µM under setting [3] was found to be 1%. Also, the IC50 (Table 1) amounted to 0.51 ± 0.01 µM.

For the molecule `OCc1ccc(-c2cccc(-c3ccc4c(c3)OCCO4)c2Br)cc1` [4f, (3′-(Benzo-1,4-dioxan-6-yl)-2′-bromo-[1,1′-biphenyl]-4-yl)methanol], the remaining activity at 5 µM stood at 15% under setting [1], 15% under setting [2] and 15% under setting [3]. For the same molecule, half-maximal inhibition (Table 1) (IC50) required 0.95 ± 0.02 µM.

With `OCc1ccc(-c2cccc(-c3ccc4c(c3)OCCO4)c2I)cc1` [4g, (3′-(Benzo-1,4-dioxan-6-yl)-2′-iodo-[1,1′-biphenyl]-4-yl)methanol], the remaining activity at 5 µM reads like this: under setting [1], 56%; under setting [2], 56%; under setting [3], 56%.

Take `N#Cc1c(-c2ccc(CO)cc2)cccc1-c1ccc2c(c1)OCCO2` [4h]: the remaining activity at 5 µM was found to be 21% under setting [1], 21% under setting [2] and 21% under setting [3]. This molecule returned an IC50 (Table 1) of 1.17 ± 0.12 µM.

For the molecule `Cc1c(-c2ccc(COc3cccc(C(=O)O)c3)cc2)cccc1-c1ccc2c(c1)OCCO2` [5b, 3-((3′-(Benzo-1,4-dioxan-6-yl)-2′-methyl-[1,1′-biphenyl]-4-yl)methoxy)benzoic Acid], the “% of undissociated complex” value came to 71% and the “HTRF % of the undissociated complex” value is 71^[a] %. The remaining activity at 50 µM under setting [1] came out at 71%.

`Cc1c(-c2ccc(COc3ccc(-c4cccnc4)c(C=O)c3)cc2)cccc1-c1ccc2c(c1)OCCO2` [5d, 5-((3′-(Benzo-1,4-dioxan-6-yl)-2′-methyl-[1,1′-biphenyl]-4-yl)methoxy)-2-(pyridin-3-yl)benzaldehyde]: the “% of undissociated complex” value stood at 65% and the “HTRF % of the undissociated complex” value is 65^[a] %. Further, under setting [1], the remaining activity at 50 µM came out at 65%.

With `Cc1c(-c2ccc(COc3cc(C(=O)O)on3)cc2)cccc1-c1ccc2c(c1)OCCO2` [5f, 3-((3′-(Benzo-1,4-dioxan-6-yl)-2′-methyl-[1,1′-biphenyl]-4-yl)methoxy)isoxazole-5-carboxylic Acid], the remaining activity at 5 µM reads like this: under setting [1], 90%; under setting [2], 90%; under setting [3], 90%.

`Cc1c(-c2ccc(Cn3cc(C(=O)O)nn3)cc2)cccc1-c1ccc2c(c1)OCCO2` [5h, 1-((3′-(Benzo-1,4-dioxan-6-yl)-2′-methyl-[1,1′-biphenyl]-4-yl)methyl)-1H-1,2,3-triazole-4-carboxylic Acid]: the remaining activity at 5 µM is 100% under setting [1], 100% under setting [2] and 100% under setting [3].

Regarding `Cc1c(-c2cccc(COc3cccc(C(=O)O)c3)c2)cccc1-c1ccc2c(c1)OCCO2` [5j, 3-((3′-(Benzo-1,4-dioxan-6-yl)-2′-methyl-[1,1′-biphenyl]-3-yl)methoxy)benzoic Acid], the remaining activity at 5 µM runs as follows: under setting [1], 90%; under setting [2], 90%; under setting [3], 90%.

Regarding `Cc1c(-c2cccc(COc3ccc(-c4cccnc4)c(C=O)c3)c2)cccc1-c1ccc2c(c1)OCCO2` [5l, 5-((3′-(Benzo-1,4-dioxan-6-yl)-2′-methyl-[1,1′-biphenyl]-3-yl)methoxy)-2-(yridine-3-yl)benzaldehyde], the “% of undissociated complex” value amounted to 95% and the “HTRF % of the undissociated complex” value was 95^[a] %. The remaining activity at 50 µM under setting [1] worked out at 95%.

As to `Cc1c(-c2cccc(COc3cc(C(=O)O)on3)c2)cccc1-c1ccc2c(c1)OCCO2` [5n, 3-((3′-(Benzo-1,4-dioxan-6-yl)-2′-methyl-[1,1′-biphenyl]-3-yl)methoxy)isoxazole-5-carboxylic Acid], the remaining activity at 5 µM is, setting by setting: under setting [1], 77%; under setting [2], 77%; under setting [3], 77%.

Regarding `Cc1c(-c2ccc3c(c2)OCCO3)cccc1-c1ccccc1COc1cccc(C(=O)O)c1` [5p, 3-((3′-(Benzo-1,4-dioxan-6-yl)-2′-methyl-[1,1′-biphenyl]-2-yl)methoxy)benzoic Acid], the “% of undissociated complex” value turned out to be 87% and the “HTRF % of the undissociated complex” value is 87^[a] %. In addition, the remaining activity at 50 µM under setting [1] was determined as 87%.

For `Cc1c(-c2ccc3c(c2)OCCO3)cccc1-c1ccccc1COc1cc(C(=O)O)on1` [5r, 3-((3′-(Benzo-1,4-dioxan-6-yl)-2′-methyl-[1,1′-biphenyl]-2-yl)methoxy)isoxazole-5-carboxylic Acid], the remaining activity at 5 µM runs as follows: under setting [1], 100%; under setting [2], 100%; under setting [3], 100%.

Turning to `Cc1c(-c2ccc(CN3CCOCC3)cc2)cccc1-c1ccc2c(c1)OCCO2` [6a, 4-((3′-(Benzo-1,4-dioxan-6-yl)-2′-methyl-[1,1′-biphenyl]-4-yl)methyl)morpholine], the remaining activity at 5 µM is, setting by setting: under setting [1], 55%; under setting [2], 55%; under setting [3], 55%.

`Cc1c(-c2ccc(CN3CCNCC3)cc2)cccc1-c1ccc2c(c1)OCCO2` [6b, 4-((3′-(Benzo-1,4-dioxan-6-yl)-2′-methyl-[1,1′-biphenyl]-4-yl)methyl)piperazine]: the “% of the undissociated complex” value worked out at 5%. Besides, the remaining activity at 5 µM under setting [1] was determined as 5%. For the same molecule, the remaining activity at 5 µM under setting [2] stood at 5%. Further, under setting [3], the remaining activity at 5 µM is 5%.

Take `Cc1c(-c2cccc(CN3CCNCC3)c2)cccc1-c1ccc2c(c1)OCCO2` [6c, 1-((3′-(Benzo-1,4-dioxan-6-yl)-2′-methyl-[1,1′-biphenyl]-3-yl)methyl)piperazine]: the “% of the undissociated complex” value is recorded as “about 56%”. In addition, under setting [1], the remaining activity at 5 µM is 56%. Besides, under setting [2], the remaining activity at 5 µM amounted to 56%. The remaining activity at 5 µM under setting [3] turned out to be 56%.

Turning to `COc1cc(-c2cccc(-c3ccc4c(c3)OCCO4)c2C)ccc1CN1CCNCC1` [6d, 1-((3′-(Benzo-1,4-dioxan-6-yl)-3-methoxy-2′-methyl-[1,1′-biphenyl]-4-yl)methyl)piperazine], the remaining activity at 0.005 µM is 63% under setting [4] and 63% under setting [5].

For `Cc1c(-c2ccc(CN3CCNCC3)c(OCc3cccc(C#N)c3)c2)cccc1-c1ccc2c(c1)OCCO2` [6e, 3-(((3′-(Benzo-1,4-dioxan-6-yl)-2′-methyl-4-(piperazin-1-ylmethyl)-[1,1′-biphenyl]-3-yl)oxy)methyl)benzonitrile], the remaining activity at 0.005 µM by setting is: under setting [4], 88%; under setting [5], 88%.

On to `CCOc1cc(-c2cccc(-c3ccc4c(c3)OCCO4)c2Cl)ccc1CNCCNC(C)=O` [7b, N-(2-(((3′-(Benzo-1,4-dioxan-6-yl)-2′-chloro-3-ethoxy-[1,1′-biphenyl]-4-yl)methyl)amino)ethyl)acetamide], for which the remaining activity at 0.005 µM is 5% under setting [4] and 5% under setting [5].

On to `CC(=O)NCCNCc1ccc(-c2cccc(-c3ccc4c(c3)OCCO4)c2Cl)cc1OC(C)C` [7c, N-(2-(((3′-(Benzo-1,4-dioxan-6-yl)-2′-chloro-3-isopropoxy-[1,1′-biphenyl]-4-yl)methyl)amino)ethyl)acetamide], for which the remaining activity at 0.005 µM under setting [4] was determined as 5% and the remaining activity at 0.005 µM under setting [5] worked out at 5%.

On to `CC(=O)NCCNCc1ccc(-c2cccc(-c3ccc4c(c3)OCCO4)c2Cl)cc1OCCC(C)C` [7d, N-(2-(((3′-(Benzo-1,4-dioxan-6-yl)-2′-chloro-3-isopentyloxy-[1,1′-biphenyl]-4-yl)methyl)amino)ethyl)acetamide], for which the remaining activity at 0.005 µM by setting is: under setting [4], 65%; under setting [5], 65%.

`CC(=O)NCCNCc1ccc(-c2cccc(-c3ccc4c(c3)OCCO4)c2Cl)cc1OCC1CCC1` [7f, N-(2-(((3′-(Benzo-1,4-dioxan-6-yl)-2′-chloro-3-(cyclobutylmethoxy)-[1,1′-biphenyl]-4-yl)methyl)amino)ethyl)acetamide]: the remaining activity at 0.005 µM was 53% under setting [4] and 53% under setting [5].

For the molecule `CC(=O)NCCNCc1ccc(-c2cccc(-c3ccc4c(c3)OCCO4)c2Cl)cc1OCC1CCCC1` [7g, N-(2-(((3′-(Benzo-1,4-dioxan-6-yl)-2′-chloro-3-(cyclopentylmethoxy)-[1,1′-biphenyl]-4-yl)methyl)amino)ethyl)acetamide], the remaining activity at 0.005 µM by setting is: under setting [4], 76%; under setting [5], 76%.

In the case of `CC(=O)NCCNCc1ccc(-c2cccc(-c3ccc4c(c3)OCCO4)c2Cl)cc1OCc1cccc(-c2cccc(C#N)c2)c1` [7h, N-(2-(((3′-(Benzo-1,4-dioxan-6-yl)-2′-chloro-3-((3′-cyano-[1,1′-biphenyl]-3-yl)methoxy)-[1,1′-biphenyl]-4-yl)methyl)amino)ethyl)acetamide], the remaining activity at 0.005 µM by setting is: under setting [4], 100%; under setting [5], 100%.
